This is an account of results in patent publication US20240239861A1, “GLUCAGON-RECEPTOR SELECTIVE POLYPEPTIDES AND METHODS OF USE THEREOF” (i2O Therapeutics, Inc., priority 2016, published 2024).

One assay has as its target human GCGR (Homo sapiens, UniProt P47871). In words: Peptide-receptor mediated cAMP accumulation (LANCE Ultra cAMP) in CHO-K1 cells transfected with human GCGR. Format: cell-based.
Another assay has as its target human GLP-1R (Homo sapiens, UniProt P43220). In words: Peptide-receptor mediated cAMP accumulation (LANCE Ultra cAMP) in CHO-K1 cells transfected with human GLP-1R. The assay is classed as cell-based. (In general: Changes in cAMP serve as a functional read-out for many G protein-coupled receptors.)
[1] abbreviates: hGLP1 pEC50 (cAMP mean (n = 3): 11 point curve starting at 1 nM, Table 3).
Setting [2] is: read-out: GluR pEC50 (converted).
Where [3] appears, read: Table 7, GLP-1R, read-out: GLP-1R pEC50 (converted).

Like-named read-outs stand apart in the source and are kept apart here. *1 amine or outer side, *2 acyl side, *3 side chain or, on linkers, in order; H or OH if unused. Where a SMILES comes first, the peptide text is derived from it. Side-chain parts run from the residue outwards. [ ]: non-standard residue; d: D form. The star is where a group is joined. γGlu = O=C(O)[C@H](CCC(=O)[*:2])N[*:1]; Palmitoyl = CCCCCCCCCCCCCCCC(=O)*; Aib = CC(C)(N)C(=O)O

human GCGR, sequence (P47871 26-477): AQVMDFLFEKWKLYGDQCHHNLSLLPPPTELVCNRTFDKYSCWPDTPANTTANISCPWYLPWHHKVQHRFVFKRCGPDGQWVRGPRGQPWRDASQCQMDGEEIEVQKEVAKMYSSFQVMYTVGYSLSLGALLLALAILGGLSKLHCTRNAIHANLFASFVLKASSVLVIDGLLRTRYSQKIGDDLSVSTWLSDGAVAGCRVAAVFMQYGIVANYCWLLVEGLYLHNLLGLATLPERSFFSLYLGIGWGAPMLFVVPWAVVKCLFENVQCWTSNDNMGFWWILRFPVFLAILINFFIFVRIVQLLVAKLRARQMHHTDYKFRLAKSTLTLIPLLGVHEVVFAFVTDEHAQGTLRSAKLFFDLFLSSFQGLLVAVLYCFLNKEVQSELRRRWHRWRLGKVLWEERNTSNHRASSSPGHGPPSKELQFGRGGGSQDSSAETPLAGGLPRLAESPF
human GLP-1R, sequence (P43220 24-463): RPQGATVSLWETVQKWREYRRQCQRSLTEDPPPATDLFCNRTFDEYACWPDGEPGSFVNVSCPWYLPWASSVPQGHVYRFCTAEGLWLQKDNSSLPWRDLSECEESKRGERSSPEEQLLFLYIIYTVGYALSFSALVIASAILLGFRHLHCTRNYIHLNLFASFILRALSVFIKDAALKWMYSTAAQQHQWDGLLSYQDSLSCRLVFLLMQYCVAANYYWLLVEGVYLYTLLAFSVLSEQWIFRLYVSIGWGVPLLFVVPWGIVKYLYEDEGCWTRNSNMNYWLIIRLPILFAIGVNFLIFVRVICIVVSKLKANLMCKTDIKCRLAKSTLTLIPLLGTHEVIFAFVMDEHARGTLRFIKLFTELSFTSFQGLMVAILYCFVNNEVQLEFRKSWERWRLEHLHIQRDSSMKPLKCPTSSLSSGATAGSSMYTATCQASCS

On to `CC(C)C[C@H](NC(=O)[C@H](Cc1ccc(O)cc1)NC(=O)[C@H](CCCCN)NC(=O)[C@H](CO)NC(=O)[C@H](Cc1ccc(O)cc1)NC(=O)[C@H](CC(=O)O)NC(=O)[C@H](CO)NC(=O)[C@@H](NC(=O)[C@H](Cc1ccccc1)NC(=O)[C@@H](NC(=O)CNC(=O)[C@H](Cc1c[nH]cn1)NC(=O)[C@H](CO)NC(=O)[C@@H](N)Cc1ccc(O)cc1)[C@@H](C)O)[C@@H](C)O)C(=O)N[C@@H](CC(=O)O)C(=O)NC(C)(C)C(=O)N[C@@H](CCCCN)C(=O)N[C@@H](CCCNC(=N)N)C(=O)N[C@@H](C)C(=O)N[C@@H](CCC(N)=O)C(=O)N[C@@H](CCC(=O)O)C(=O)N[C@@H](Cc1ccccc1)C(=O)N[C@H](C(=O)NC(C)(C)C(=O)N[C@@H](Cc1c[nH]c2ccccc12)C(=O)N[C@@H](CC(C)C)C(=O)N[C@@H](CCC(=O)O)C(=O)N[C@@H](CC(=O)O)C(=O)N[C@@H](CCC(=O)O)C(=O)N1CCC[C@H]1C(=O)N[C@@H](CCCCN)C(=O)N[C@@H](CO)C(=O)N[C@@H](CCCCN)C(=O)N[C@@H](CCC(N)=O)C(=O)N1CCC[C@H]1C(=O)N1CCC[C@H]1C(=O)N1CCC[C@H]1C(=O)N[C@@H](CO)C(=O)O)C(C)C` [Compound A57] (H-YSHGTFTSDYSKYLD[Aib]KRAQEFV[Aib]WLEDEPKSKQPPPS-OH; N-terminus assumed), for which the EC50 on human GCGR (Table 3) is 0.001 nM; at human GLP-1R (setting [1]), over 1 nM.
Taken in the same sequence, the figures for `CC(C)C[C@H](NC(=O)[C@H](Cc1ccc(O)cc1)NC(=O)[C@H](CCCCN)NC(=O)[C@H](CO)NC(=O)[C@H](Cc1ccc(O)cc1)NC(=O)[C@H](CC(=O)O)NC(=O)[C@H](CO)NC(=O)[C@@H](NC(=O)[C@H](Cc1ccccc1)NC(=O)[C@@H](NC(=O)CNC(=O)[C@H](Cc1c[nH]cn1)NC(=O)[C@H](CO)NC(=O)[C@@H](N)Cc1ccc(O)cc1)[C@@H](C)O)[C@@H](C)O)C(=O)N[C@@H](CC(=O)O)C(=O)N[C@@H](CO)C(=O)N[C@@H](C)C(=O)N[C@@H](CCCNC(=N)N)C(=O)N[C@@H](C)C(=O)N[C@@H](CCC(N)=O)C(=O)N[C@@H](CCC(=O)O)C(=O)N[C@@H](Cc1ccccc1)C(=O)N[C@H](C(=O)N[C@@H](CCCCN)C(=O)N[C@@H](Cc1c[nH]c2ccccc12)C(=O)N[C@@H](CC(C)C)C(=O)N[C@@H](CCC(=O)O)C(=O)N[C@@H](CC(=O)O)C(=O)N[C@@H](CCC(=O)O)C(=O)N1CCC[C@H]1C(=O)N[C@@H](CCCCN)C(=O)N[C@@H](CO)C(=O)N[C@@H](CCCCN)C(=O)N[C@@H](CO)C(=O)N1CCC[C@H]1C(=O)N1CCC[C@H]1C(=O)N1CCC[C@H]1C(=O)N[C@@H](CO)C(=O)O)[C@@H](C)O` [Compound A83] (H-YSHGTFTSDYSKYLDSARAQEFTKWLEDEPKSKSPPPS-OH; N-terminus assumed) were 0.0631 nM and over 1 nM.
Take `CCCCCCCCCCCCCCCC(=O)N[C@@H](CCC(=O)NCCCC[C@H](NC(=O)[C@H](CC(=O)O)NC(=O)[C@H](CO)NC(=O)[C@@H](NC(=O)[C@H](Cc1ccccc1)NC(=O)[C@@H](NC(=O)CNC(=O)[C@H](CCC(N)=O)NC(=O)[C@H](CO)NC(=O)[C@@H](N)Cc1ccc(O)cc1)[C@@H](C)O)[C@@H](C)O)C(=O)N[C@@H](CO)C(=O)N[C@@H](CCCCN)C(=O)N[C@@H](Cc1ccc(O)cc1)C(=O)N[C@@H](CC(C)C)C(=O)N[C@@H](CC(=O)O)C(=O)N[C@@H](C)C(=O)N[C@@H](C)C(=O)N[C@@H](CCCNC(=N)N)C(=O)N[C@@H](C)C(=O)N[C@@H](CCC(N)=O)C(=O)N[C@@H](CCC(=O)O)C(=O)N[C@@H](Cc1ccccc1)C(=O)N[C@H](C(=O)N[C@@H](CCCCN)C(=O)N[C@@H](Cc1c[nH]c2ccccc12)C(=O)N[C@@H](CC(C)C)C(=O)N[C@@H](CCC(=O)O)C(=O)N[C@@H](CC(=O)O)C(=O)N[C@@H](CCC(=O)O)C(=O)N1CCC[C@H]1C(=O)N[C@@H](CCCCN)C(=O)N[C@@H](CO)C(=O)N[C@@H](CCCCN)C(=O)N[C@@H](CO)C(=O)N1CCC[C@H]1C(=O)N1CCC[C@H]1C(=O)N1CCC[C@H]1C(=O)N[C@@H](CO)C(N)=O)C(C)C)C(=O)O` [Compound B36] (H-YSQGTFTSDK([γGlu-Palmitoyl])SKYLDAARAQEFVKWLEDEPKSKSPPPS-NH2): the EC50 was 0.00316 nM at human GCGR (setting [2]) and 7.94 nM on human GLP-1R (setting [3]).
As for `CC(C)C[C@H](NC(=O)[C@H](Cc1ccc(O)cc1)NC(=O)[C@H](CCCCN)NC(=O)[C@H](CO)NC(=O)[C@H](Cc1ccc(O)cc1)NC(=O)[C@H](CC(=O)O)NC(=O)[C@H](CO)NC(=O)[C@@H](NC(=O)[C@H](Cc1ccccc1)NC(=O)[C@@H](NC(=O)CNC(=O)[C@H](Cc1c[nH]cn1)NC(=O)[C@H](CO)NC(=O)[C@@H](N)Cc1ccc(O)cc1)[C@@H](C)O)[C@@H](C)O)C(=O)N[C@@H](CC(=O)O)C(=O)NC(C)(C)C(=O)N[C@@H](CCCCN)C(=O)N[C@@H](CCCNC(=N)N)C(=O)N[C@@H](C)C(=O)N[C@@H](CCC(N)=O)C(=O)N[C@@H](CCC(=O)O)C(=O)N[C@@H](Cc1ccccc1)C(=O)N[C@H](C(=O)NC(C)(C)C(=O)N[C@@H](Cc1c[nH]c2ccccc12)C(=O)N[C@@H](CC(C)C)C(=O)N[C@@H](CCC(=O)O)C(=O)N[C@@H](CC(=O)O)C(=O)N[C@@H](CCC(=O)O)C(=O)N1CCC[C@H]1C(=O)N[C@@H](CO)C(=O)N[C@@H](CO)C(=O)NCC(=O)N[C@@H](CO)C(=O)N1CCC[C@H]1C(=O)N1CCC[C@H]1C(=O)N1CCC[C@H]1C(=O)N[C@@H](CO)C(=O)O)C(C)C` [Compound A22] (H-YSHGTFTSDYSKYLD[Aib]KRAQEFV[Aib]WLEDEPSSGSPPPS-OH; N-terminus assumed), the EC50 is 0.01 nM at human GCGR (Table 3) and over 1 nM on human GLP-1R (setting [1]).
Turning to `CC(C)C[C@H](NC(=O)[C@H](Cc1ccc(O)cc1)NC(=O)[C@H](CCCCN)NC(=O)[C@H](CO)NC(=O)[C@H](Cc1ccc(O)cc1)NC(=O)[C@H](CC(=O)O)NC(=O)[C@H](CO)NC(=O)[C@@H](NC(=O)[C@H](Cc1ccccc1)NC(=O)[C@@H](NC(=O)CNC(=O)[C@H](Cc1c[nH]cn1)NC(=O)[C@@H](NC(=O)[C@@H](N)Cc1ccc(O)cc1)[C@@H](C)O)[C@@H](C)O)[C@@H](C)O)C(=O)N[C@@H](CC(=O)O)C(=O)N[C@@H](CO)C(=O)N[C@@H](C)C(=O)N[C@@H](CCCNC(=N)N)C(=O)N[C@@H](C)C(=O)N[C@@H](CCC(N)=O)C(=O)N[C@@H](CCC(=O)O)C(=O)N[C@@H](Cc1ccccc1)C(=O)N[C@H](C(=O)N[C@@H](CCCCN)C(=O)N[C@@H](Cc1c[nH]c2ccccc12)C(=O)N[C@@H](CC(C)C)C(=O)N[C@@H](CCC(=O)O)C(=O)N[C@@H](CC(=O)O)C(=O)N[C@@H](CCC(=O)O)C(=O)N1CCC[C@H]1C(=O)N[C@@H](CO)C(=O)N[C@@H](CO)C(=O)NCC(=O)N[C@@H](C)C(=O)N1CCC[C@H]1C(=O)N1CCC[C@H]1C(=O)N1CCC[C@H]1C(=O)N[C@@H](CO)C(=O)O)C(C)C` [Compound A63] (H-YTHGTFTSDYSKYLDSARAQEFVKWLEDEPSSGAPPPS-OH), the results for the EC50 on human GCGR (Table 3) and at human GLP-1R (setting [1]) were 0.0398 nM and over 1 nM, respectively.
The corresponding values for `CC(C)C[C@H](NC(=O)[C@H](Cc1ccc(O)cc1)NC(=O)[C@H](CCCCN)NC(=O)[C@H](CO)NC(=O)[C@H](Cc1ccc(O)cc1)NC(=O)[C@H](CC(=O)O)NC(=O)[C@H](CO)NC(=O)[C@@H](NC(=O)[C@H](Cc1ccccc1)NC(=O)[C@@H](NC(=O)CNC(=O)[C@H](Cc1c[nH]cn1)NC(=O)[C@H](CO)NC(=O)[C@@H](N)Cc1ccc(O)cc1)[C@@H](C)O)[C@@H](C)O)C(=O)N[C@@H](CC(=O)O)C(=O)NC(C)(C)C(=O)N[C@@H](CCCCN)C(=O)N[C@@H](CCCNC(=N)N)C(=O)N[C@@H](C)C(=O)N[C@@H](CCC(N)=O)C(=O)N[C@@H](CCC(=O)O)C(=O)N[C@@H](Cc1ccccc1)C(=O)N[C@H](C(=O)NC(C)(C)C(=O)N[C@@H](Cc1c[nH]c2ccccc12)C(=O)N[C@@H](CC(C)C)C(=O)N[C@@H](CCC(=O)O)C(=O)N[C@@H](CC(=O)O)C(=O)N[C@@H](CCC(=O)O)C(=O)N1CCC[C@H]1C(=O)N[C@@H](CCC(=O)O)C(=O)N[C@@H](CO)C(=O)NCC(=O)N[C@@H](C)C(=O)N1CCC[C@H]1C(=O)N1CCC[C@H]1C(=O)N1CCC[C@H]1C(=O)N[C@@H](CO)C(=O)O)C(C)C` [Compound A31] (H-YSHGTFTSDYSKYLD[Aib]KRAQEFV[Aib]WLEDEPESGAPPPS-OH; N-terminus assumed) are 0.002 nM and over 1 nM.
In the case of `CC(C)C[C@H](NC(=O)[C@H](Cc1ccc(O)cc1)NC(=O)[C@H](CCCCN)NC(=O)[C@H](CO)NC(=O)[C@H](Cc1ccc(O)cc1)NC(=O)[C@H](CC(=O)O)NC(=O)[C@H](CO)NC(=O)[C@@H](NC(=O)[C@H](Cc1ccccc1)NC(=O)[C@@H](NC(=O)CNC(=O)[C@H](Cc1c[nH]cn1)NC(=O)[C@H](CO)NC(=O)[C@@H](N)Cc1ccc(O)cc1)[C@@H](C)O)[C@@H](C)O)C(=O)N[C@@H](CC(=O)O)C(=O)N[C@@H](CCCCNC(=O)COCCOCCNC(=O)COCCOCCNC(=O)CC[C@H](NC(=O)CCCCCCCCCCCCCCCCC(=O)O)C(=O)O)C(=O)N[C@@H](CCCCN)C(=O)N[C@@H](Cc1ccc(O)cc1)C(=O)N[C@@H](C)C(=O)N[C@@H](CCC(N)=O)C(=O)N[C@@H](CCC(=O)O)C(=O)N[C@@H](Cc1ccccc1)C(=O)N[C@H](C(=O)NC(C)(C)C(=O)N[C@@H](Cc1c[nH]c2ccccc12)C(=O)N[C@@H](CC(C)C)C(=O)N[C@@H](CCC(=O)O)C(=O)N[C@@H](CC(=O)O)C(=O)N[C@@H](CCC(=O)O)C(=O)N1CCC[C@H]1C(=O)N[C@@H](CO)C(=O)N[C@@H](CO)C(=O)NCC(=O)N[C@@H](C)C(=O)N1CCC[C@H]1C(=O)N1CCC[C@H]1C(=O)N1CCC[C@H]1C(=O)N[C@@H](CO)C(=O)O)C(C)C` [Compound B7], the EC50 is 2.51 nM at human GCGR (setting [2]) and over 1000 nM at human GLP-1R (setting [3]).
